This note sets out measurements from US20220017433A1 (UNIVERSITÄT ZÜRICH, priority 2018, published 2022).

The data set in a line: Water solubility of the chelating compounds. Format: physicochemical. Conditions: aqueous stock solution, pH lowered with HCl.

As for Desferrioxamine-p-arylazide [DFO-ArN3], the “pH below which the compound starts to precipitate slowly” value is on record as roughly 9.
